For this assay, the target named is T1, human TRPV4 (Homo sapiens, UniProt Q9HBA0).
T1 construct: expressed in transfected cells; host or cells: HEK293 MSRII cells (BacMam transduction)
The experiment in a line: Ligand-gated assay: FLIPR assay for human TRPV4 expressed in HEK293 MSRII cells. The format is cell-based. The settings on record: HEK293 MSRII cells transduced with BacMam virus expressing human TRPV4; Fluo-4 calcium signal; agonist at EC80; read-out: activity (inhibition of Agonist Compound-induced calcium signal). The source says:
FLIPR Assay for Human TRPV4 Expressed in HEK293 MSRII Cells
TRPV4 channel activation results in an influx of divalent and monovalent cations including calcium. The resulting changes in intracellular calcium were monitored using a calcium specific fluorescent dye Fluo-4 (MDS Analytical Technologies). HEK293 MSRII cells (human embryonic kidney 293 cells stably expressing the macrophage scavenger receptor class II) transduced with BacMam virus expressing the human TRPV4 gene at 1% final concentration were plated in a 384 well poly-D lysine coated plate (15,000 cells/well in 50 μL culture medium containing DMEM/F12 with 15 mM HEPES, 10% FBS, 1% Penicillin-Streptomycin and 1% L-glutamine). Cells were incubated for 24-72 hours at 37° C. and 5% CO2. Culture medium was then aspirated using a Tecan plate-washer and replaced with 20 μL/well of dye loading buffer: HBSS, 500 μM Brilliant Black (MDS Analytical Technologies), and 2 μM Fluo-4 AM. Dye loaded plates were then incubated in the dark at room temperature for 1-1.5 hours. […] Calcium signals were measured using FLIPR^TETRA (MDS Analytical Technologies) or FLIPR384 (MDS Analytical Technologies) and the inhibition of Agonist Compound-induced calcium signal by the test compound was determined.

Structures are written as SMILES.

T1 sequence (Q9HBA0 whole entry): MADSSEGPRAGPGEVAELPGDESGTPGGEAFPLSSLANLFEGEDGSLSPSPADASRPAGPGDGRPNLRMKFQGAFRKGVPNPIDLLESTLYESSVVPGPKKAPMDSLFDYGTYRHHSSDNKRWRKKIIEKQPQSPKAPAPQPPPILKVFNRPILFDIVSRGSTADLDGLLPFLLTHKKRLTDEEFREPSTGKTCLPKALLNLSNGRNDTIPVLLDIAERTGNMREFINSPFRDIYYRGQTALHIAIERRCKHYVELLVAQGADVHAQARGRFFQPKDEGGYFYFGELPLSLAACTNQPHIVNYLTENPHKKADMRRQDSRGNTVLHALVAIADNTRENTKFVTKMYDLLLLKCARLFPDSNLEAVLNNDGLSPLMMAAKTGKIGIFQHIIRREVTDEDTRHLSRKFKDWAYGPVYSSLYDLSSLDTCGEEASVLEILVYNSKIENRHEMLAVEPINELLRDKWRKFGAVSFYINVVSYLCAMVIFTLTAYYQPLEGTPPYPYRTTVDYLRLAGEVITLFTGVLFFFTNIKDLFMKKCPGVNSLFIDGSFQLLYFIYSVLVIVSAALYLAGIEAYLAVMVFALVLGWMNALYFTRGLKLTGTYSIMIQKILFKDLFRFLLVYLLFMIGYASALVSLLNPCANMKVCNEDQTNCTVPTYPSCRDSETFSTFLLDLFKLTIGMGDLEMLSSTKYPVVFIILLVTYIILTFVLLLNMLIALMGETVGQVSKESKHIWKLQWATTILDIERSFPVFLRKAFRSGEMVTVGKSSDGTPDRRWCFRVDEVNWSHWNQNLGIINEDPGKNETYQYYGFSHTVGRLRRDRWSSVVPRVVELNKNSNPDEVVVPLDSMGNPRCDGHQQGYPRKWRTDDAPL

With `N#Cc1ccc2ncn(C[C@@]3(O)CCC[C@@]4(CN(c5cnc(C6CC6)cn5)C(=O)O4)C3)c2c1` [Compound A, 1-(((5S,7R)-3-(5-cyclopropylpyrazin-2-yl)-7-hydroxy-2-oxo-1-oxa-3-azaspiro[4.5]decan-7-yl)methyl)-1H-benzo[d]imidazole-6-carbonitrile], the IC50 worked out at 6.3 nM.

The values are drawn from US10968209B2, “TRPV4 antagonist” (GlaxoSmithKline Intellectual Property (No.2) Limited, priority 2016, dated 2021).
